# Source: ChEMBL document CHEMBL4382234, “Fluoroquinolone-isatin hybrids and their biological activities” (Eur J Med Chem, 2019)
# Assays:
# Format in all cases: functional
# [1] = test system: Mycolicibacterium smegmatis; experiment: Antimycobacterial activity against Mycobacterium smegmatis CMCC 93202 after 72 hrs by double dilution method; details: CMCC 93202, 72 h
# [2] = test system: Mycobacterium tuberculosis; experiment: Antimycobacterial activity against Mycobacterium tuberculosis H37Rv ATCC 27294 by rapid direct susceptibility test
# [3] = test system: Mycobacterium tuberculosis; experiment: Antimycobacterial activity against Mycobacterium tuberculosis H37Rv after 3 to 7 days by rapid direct susceptibility test
# [4] = test system: Mycobacterium tuberculosis; experiment: Antitubercular activity against Mycobacterium tuberculosis H37Rv by microplate alamar blue assay
smiles,measurement,setting,value
CCO/N=C1\C(=O)N(CCN2CCC[C@H]3CN(c4c(F)cc5c(=O)c(C(=O)O)cn(C6CC6)c5c4OC)C[C@H]32)c2ccc(F)cc21,MIC,[1],0.39 to 16 µg/mL
same,MIC,[2],0.39 to 16 µg/mL
COc1c(N2C[C@@H]3CCCN(CCN4C(=O)C(=O)c5cc(F)ccc54)[C@@H]3C2)c(F)cc2c(=O)c(C(=O)O)cn(C3CC3)c12,MIC,[1],0.39 to 16 µg/mL
same,MIC,[2],0.39 to 16 µg/mL
CO/N=C1\C(=O)N(CN2CCC[C@H]3CN(c4c(F)cc5c(=O)c(C(=O)O)cn(C6CC6)c5c4OC)C[C@H]32)c2ccccc21,MIC,[1],0.39 to 16 µg/mL
same,MIC,[2],0.39 to 16 µg/mL
CCO/N=C1/C(=O)N(CCn2cc(CN3CCC[C@H]4CN(c5c(F)cc6c(=O)c(C(=O)O)cn(C7CC7)c6c5OC)C[C@H]43)nn2)c2ccc(Br)cc21,MIC,[3],0.1 to 0.78 µg/mL
COc1c(N2C[C@@H]3CCCN(CCN4C(=O)/C(=N\NC(N)=S)c5cc(F)ccc54)[C@@H]3C2)c(F)cc2c(=O)c(C(=O)O)cn(C3CC3)c12,MIC,[1],0.39 to 16 µg/mL
same,MIC,[2],0.39 to 16 µg/mL
O=C(O)c1cn(C2CC2)c2cc(N3CCN(CCCN4C(=O)/C(=N/O)c5ccccc54)CC3)c(F)cc2c1=O,MIC,[3],0.1 to 64 µg/mL
CCn1cc(C(=O)O)c(=O)c2cc(F)c(N3CCN(CN4C(=O)/C(=N\c5ncc(Cc6cc(OC)c(OC)c(OC)c6)c(N)n5)c5cc(C)ccc54)C(C)C3)c(F)c21 (stereo not given),MIC,[4],0.78 to 3.13 µg/mL
CO[C@H]1/C=C/O[C@@]2(C)Oc3c(C)c(O)c4c(O)c(c(/C=N/N5CCN(C)CC5)c(O)c4c3C2=O)NC(=O)/C(C)=C\C=C\[C@H](C)[C@H](O)[C@@H](C)[C@@H](O)[C@@H](C)[C@H](OC(C)=O)[C@@H]1C [RIFAMPIN],MIC,[3],0.25 to 0.39 µg/mL
same,MIC,[4],0.125 µg/mL
COc1c(N2C[C@@H]3CCCN(CCN4C(=O)/C(=N\O)c5cc(F)ccc54)[C@@H]3C2)c(F)cc2c(=O)c(C(=O)O)cn(C3CC3)c12,MIC,[1],0.39 to 16 µg/mL
same,MIC,[2],0.39 to 16 µg/mL
CCn1cc(C(=O)O)c(=O)c2cc(F)c(N3CCN(CN4C(=O)/C(=N\c5ncc(Cc6cc(OC)c(OC)c(OC)c6)c(N)n5)c5cc(F)ccc54)CC3)cc21,MIC,[4],0.78 to 3.13 µg/mL
CCO/N=C1/C(=O)N(CCn2cc(CN3CCC[C@H]4CN(c5c(F)cc6c(=O)c(C(=O)O)cn(C7CC7)c6c5OC)C[C@H]43)nn2)c2ccccc21,MIC,[3],0.1 to 0.78 µg/mL
COc1c(N2C[C@@H]3CCCN(Cc4cn(CCN5C(=O)/C(=N/O)c6cc(Br)ccc65)nn4)[C@@H]3C2)c(F)cc2c(=O)c(C(=O)O)cn(C3CC3)c12,MIC,[3],0.1 to 0.78 µg/mL
Cc1ccc2c(c1)/C(=N\O)C(=O)N2CCCN1CCN(c2cc3c(cc2F)c(=O)c(C(=O)O)cn3C2CC2)CC1,MIC,[3],0.1 to 64 µg/mL
CCc1cc(C(N)=S)ccn1 [ETHIONAMIDE],MIC,[4],2.5 µg/mL
NC[C@H]1O[C@H](O[C@H]2[C@H](O)[C@@H](O[C@H]3O[C@H](CO)[C@@H](O)[C@H](N)[C@H]3O)[C@H](N)C[C@@H]2N)[C@H](O)[C@@H](O)[C@@H]1O [KANAMYCIN],MIC,[4],5 µg/mL
COc1c(N2C[C@@H]3CCCN(Cc4cn(CCN5C(=O)/C(=N/O)c6ccccc65)nn4)[C@@H]3C2)c(F)cc2c(=O)c(C(=O)O)cn(C3CC3)c12,MIC,[3],0.1 to 0.78 µg/mL
COc1c(N2C[C@@H]3CCCN(CN4C(=O)C(=O)c5cc(F)ccc54)[C@@H]3C2)c(F)cc2c(=O)c(C(=O)O)cn(C3CC3)c12,MIC,[1],0.39 to 16 µg/mL
same,MIC,[2],0.39 to 16 µg/mL
CO/N=C1\C(=O)N(CCN2CCC[C@H]3CN(c4c(F)cc5c(=O)c(C(=O)O)cn(C6CC6)c5c4OC)C[C@H]32)c2ccccc21,MIC,[1],0.39 to 16 µg/mL
same,MIC,[2],0.39 to 16 µg/mL
COc1c(N2C[C@@H]3CCCN(CCN4C(=O)/C(=N\NC(N)=O)c5cc(F)ccc54)[C@@H]3C2)c(F)cc2c(=O)c(C(=O)O)cn(C3CC3)c12,MIC,[1],0.39 to 16 µg/mL
same,MIC,[2],0.39 to 16 µg/mL
COc1c(N2C[C@@H]3CCCN(Cc4cn(CCN5C(=O)C(=O)c6ccccc65)nn4)[C@@H]3C2)c(F)cc2c(=O)c(C(=O)O)cn(C3CC3)c12,MIC,[3],0.1 to 0.78 µg/mL
COc1c(N2C[C@@H]3CCCN(CCN4C(=O)/C(=N\NC(N)=S)c5ccccc54)[C@@H]3C2)c(F)cc2c(=O)c(C(=O)O)cn(C3CC3)c12,MIC,[1],0.39 to 16 µg/mL
same,MIC,[2],0.39 to 16 µg/mL
CCO/N=C1\C(=O)N(CN2CCC[C@H]3CN(c4c(F)cc5c(=O)c(C(=O)O)cn(C6CC6)c5c4OC)C[C@H]32)c2ccc(F)cc21,MIC,[1],0.39 to 16 µg/mL
same,MIC,[2],0.39 to 16 µg/mL
CCO/N=C1\C(=O)N(CN2CCC[C@H]3CN(c4c(F)cc5c(=O)c(C(=O)O)cn(C6CC6)c5c4OC)C[C@H]32)c2ccccc21,MIC,[1],0.39 to 16 µg/mL
same,MIC,[2],0.39 to 16 µg/mL
COc1c(N2C[C@@H]3CCCN(Cc4cn(CCN5C(=O)C(=O)c6cc(Br)ccc65)nn4)[C@@H]3C2)c(F)cc2c(=O)c(C(=O)O)cn(C3CC3)c12,MIC,[3],0.1 to 0.78 µg/mL
COc1cc(Cc2cnc(/N=C3\C(=O)N(CN4CCN(c5c(F)cc6c(=O)c(C(=O)O)cn(C7CC7)c6c5OC)CC4C)c4ccc(F)cc43)nc2N)cc(OC)c1OC (stereo not given),MIC,[4],0.78 to 3.13 µg/mL
COc1c(N2C[C@@H]3CCCN(CCN4C(=O)C(=O)c5ccccc54)[C@@H]3C2)c(F)cc2c(=O)c(C(=O)O)cn(C3CC3)c12,MIC,[1],0.39 to 16 µg/mL
same,MIC,[2],0.39 to 16 µg/mL
COc1cc(Cc2cnc(/N=C3\C(=O)N(CN4CCN(c5c(F)cc6c(=O)c(C(=O)O)cn(C7CC7)c6c5OC)CC4C)c4ccc(C)cc43)nc2N)cc(OC)c1OC (stereo not given),MIC,[4],0.78 to 3.13 µg/mL
